# Data taken from patent publication US5719278A, “Tricyclic benzazepine vasopressin antagonists” (American Cyanamid Company, priority 1996, dated 1998).
# What was measured:
# [1] = biological target: T1, Rat Kidney Medullary V2 Receptors (Rattus norvegicus, UniProt Q00788); assay: Binding Assay to Rat Kidney Medullary V2 Receptors; details: for IC50: Rat Kidney Medullary V2 Receptors (no asterisk)
# T1 construct: Medullary tissues from rat kidneys are dissected out; from tissue; host or cells: rat kidney medulla membranes
# Procedure: Binding Assay to Rat Kidney Medullary V2 Receptors
# Medullary tissues from rat kidneys are dissected out, cut into small pieces and let soak in a […] sodium chloride solution containing 1.0 mM EDTA with many changes of the liquid phase, until the solution is clear of blood. The tissue is homogenized in a 0.25M sucrose solution containing 1.0 mM EDTA and 0.1 mM PMSF using a Potter-Elvehjem homogenizer with a teflon pestle. The homogenate is filtered through several layers (4 layers) of cheese cloth. The filtrate is rehomogenized using a dounce homogenizer, with a tight fitting pestle. The final homogenate is contrifuged at 1500×g for 15 min. The nuclear pellet is discarded and the supernatant fluid recentrifuged at 40,000×g for 30 min. The resulting pellet formed contains a dark inner part with the exterior, slightly pink. The pink outer part is suspended in a small amount of 50.0 mM Tris.HCl buffer, pH 7.4. The protein content is determined by the Lowry's method (Lowry et al, J. Biol. Chem., 1953). The membrane suspension is stored at -70° C., in 50.0 mM Tris.HCl, containing 0.2% inactivated BSA and 0.1 mM PMSF in aliquots of 1.0 ml containing 10.0 mg protein per ml of suspension until use in subsequent binding experiments.
# For binding experiments, the following is added in μl volume to wells of a 96 well format of a microtiter plate: 100.0 μl of 100.0 mM Tris.HCl buffer containing 0.2% heat inactivated BSA, 10.0 mM MgCl2 and a mixture of protease inhibitors: leupeptin, 1.0 mg %; aprotinin, 1.0 mg %; 1,10-phenanthroline, 2.0 mg %; trypsin inhibitor, 10.0 mg % and 0.1 mM PMSF, 20.0 μl of [^3 H]Arginine^8, vasopressin (S.A. 75.0 Ci/mmole) at 0.8 nM and the reaction initiated by the addition of 80.0 μl of tissue membranes (200.0 μg tissue protein). The plates are left undisturbed on the bench top for 120 min. to reach equilibrium. Non-specific binding is assessed in the presence of 1.0 μM of unlabeled ligand, added in 20 μl volume. For test compounds, these are solubilized in 50% dimethylsulfoxide (DMSO) and added in 20.0 μl volume to a final incubation volume of 200 μl. Upon completion of binding, the content of each well is filtered off, using a Brandel® cell Harvester (Gaithersburg, Md.). The radioactivity trapped on the filter disk by the ligand-receptor complex is assessed by liquid scintillation counting in a Packard LS Counter, with an efficiency of 65% for tritium. The data are analyzed for IC50 values by the LUNDON-2 program for competition (LUNDON SOFTWARE, Ohio).
# [2] = biological target: T2, V1 Receptor Subtype in Human Platelet (Homo sapiens, UniProt P37288); assay: Binding to Vasopressin V1 Receptor Subtype in Human Platelet Membranes
# T2 construct: from tissue; host or cells: human platelets (platelet rich plasma from Hudson Valley Blood Services)
# Procedure: Radioligand Binding Experiments with Human Platelet Membranes
# Platelet Source: Hudson Valley Blood Services, Westchester Medical Center, Valhalla, N.Y.
# Frozen platelet rich plasma (PRP), received from the Hudson Valley Blood Services are thawed to room temperature. The tubes containing the PRP are centrifuged at 16,000×g for 10 min. at 4° C. and the supernatant fluid discarded. The platelets resuspended in an equal volume of 50.0 mM Tris.HCl, pH 7.5 containing 120 mM NaCl and 20.0 mM EDTA. The suspension is recentrifuged at 16,000×g for 10 min. This washing step is repeated one more time. The wash is discarded and the lysed pellets homogenized in low ionic strength buffer of Tris.HCl, 5.0 mM, pH 7.5 containing 5.0 mM EDTA. The homogenate is centrifuged at 39,000×g for 10 min. The resulting pellet is resuspended in Tris.HCl buffer, 70.0 mM, pH 7.5 and recentrifuged at 39,000×g for 10 min. The final pellet is resuspended in 50.0 mM Tris.HCl buffer pH 7.4 containing 120 mM NaCl and 5.0 mM HCl to give 1.0-2.0 mg protein per ml of suspension.
# Binding to Vasopressin V1 Receptor Subtype in Human Platelet Membranes:
# In wells of a 96 well format microtiter plate, add 100 μl of 50.0 mM Tris.HCl buffer containing 0.2% BSA and a mixture of protease inhibitors (aprotinin, leupeptin etc.). Then add 20 μl of [^3 H]Ligand: (Manning or Arg^8 Vasopressin), to give final concentrations ranging from 0.01 to 10.0 nM. Initiate the binding by adding 80.0 μl of platelet suspension (approx. 100 μg protein). Mix all reagents by pipetting the mixture up and down a few times. Non-specific binding is measured in the presence of 1.0 μM of unlabeled ligand (Manning or Arg^8 Vasopressin). Let the mixture stand undisturbed at room temperature for ninety (90) min. Upon this time, rapidly filter off the incubate under vacuum suction over GF/B filters, using a Brandel® Harvester. Determine the radioactivity caught on the filter disks by the addition of liquid scintillant and counting in a liquid scintillator
# Vasopressin V2 = Vasopressin V2 Antagonist Activity in Conscious Hydrated Rats; format: in vivo, rat; details: 10 mg/kg orally, N = 2, AVP 0.4 μg/kg intraperitoneally; for Osmolality (mOsm/kg): urine
# Procedure: Vasopressin V2 Antagonist Activity in Conscious Hyrdated Rats
# Conscious hydrated rats are treated with compounds under study from 0.1 to 100 mg/kg orally or vehicle. Two to four rats are used for each compound. One hour later, arginine vasopressin (AVP, antidiuretic hormone, ADH) dissolved in peanut oil is administered at 0.4 μg/kg intraperitoneally. Two rats in each test would not receive arginine vasopressin but only the vehicle (peanut oil) to serve as water-loading control. Twenty minutes later each rat is given 30 mL/kg of deionized water orally by gavage and is placed individually in a metabolic cage equipped with a funnel and a graduated glass cylinder to collect urine for four hours. Urine volume is measured and osmolality analyzed by use of a Fiske One-Ten osmometer (Fiske Assoc., Norwood, Mass. U.S.A.). Urinary sodium, potassium, and chloride are analyzed by use of ion-specific electrodes in a Beckman E3(Electrolyte 3) Analyzer.
# In the following results, […] and decreased osmolality relative to AVP-control indicates activity.
# oxytocin receptors = biological target: T3, oxytocin receptors (Rattus norvegicus, UniProt P70536); assay: Oxytocin Receptor Binding; design: species or system Sprague-Dawley rat
# T3 construct: The uteri are dissected out, cleaned of fat and connective tissues; from tissue; host or cells: uterus of DES-treated female Sprague-Dawley rats
# T3 sequence (P70536 1-388): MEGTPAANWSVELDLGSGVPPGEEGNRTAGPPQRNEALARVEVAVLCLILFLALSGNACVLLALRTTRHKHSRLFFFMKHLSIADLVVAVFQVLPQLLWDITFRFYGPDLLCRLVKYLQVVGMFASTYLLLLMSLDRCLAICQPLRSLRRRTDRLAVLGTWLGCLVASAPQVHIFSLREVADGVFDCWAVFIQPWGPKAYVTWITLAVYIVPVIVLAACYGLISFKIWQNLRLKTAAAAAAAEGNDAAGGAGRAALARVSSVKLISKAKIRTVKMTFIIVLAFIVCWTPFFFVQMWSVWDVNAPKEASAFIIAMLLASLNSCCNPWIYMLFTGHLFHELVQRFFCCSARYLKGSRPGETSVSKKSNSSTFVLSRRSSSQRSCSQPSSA
# Procedure: Oxytocin Receptor Binding
# Female Sprague-Dawley rats weighing approximately 200-250 g are injected intramuscularly (i.m.) with 0.3 mg/kg of body weight of diethylstilbestrol (DES). The rats are sacrificed 18 hours later under pentobarbital anesthesia. The uteri are dissected out, cleaned of fat and connective tissues and rinsed in 50 ml of normal saline. The tissue pooled from six rats is homogenized in 50 ml of […] TriS.HCl, containing 0.5 mM dithiothreitol and 1.0 mM EDTA, adjusted to pH 7.4, using a polytron at setting 6 with three passes of 10 sec each. The homogenate is passed through two (2) layers of cheesecloth and the filtrate contrifuged at 1000×g for 10 min. The clear supernatant is removed and recentrifuged at 165,000×g for 30 min. The resulting pellet containing the oxytocin receptors is resuspended in 50.0 mM Tris.HCl containing 5.0 mM MgCl2 at pH 7.4, to give a protein concentration of 2.5 mg/ml of tissue suspension. This preparation is used in subsequent binding assays with [^3 H]Oxytocin.
# Binding of 3,5-[^3 H]Oxytocin ([^3 H]OT) to its receptors is done in microtiter plates using [^3 H]OT, at various concentrations, in an assay buffer of 50.0 mM Tris.HCl, pH 7.4 and containing 5.0 mM MgCl2, and a mixture of protease inhibitors: BSA, 0.1 mg; aprotinin, 1.0 mg; 1,10-phenanthroline, 2.0 mg; […], 10.0 mg; and PMSF, 0.3 mg per 100 ml of buffer solution. Non-specific binding is determined in the presence of 1.0 uM unlabeled OT. The binding reaction is terminated after 60 min., at 22° C., by rapid filtration through glass fiber filters using a Brandel® cell harvester (Biomedical Research and Development Laboratories, Inc., Gaithersburg, Md.). Competition experiments are conducted at equilibrium using 1.0 nM [^3 H]OT and varying the concentration of the displacing agents. The concentrations of agent displacing 50% of [^3 H]OT at its sites (IC50) are calculated by a computer assisted LUNDON-2 program (LUNDON SOFTWARE INC., Ohio, U.S.A.).
# T1 sequence (Q00788 whole entry): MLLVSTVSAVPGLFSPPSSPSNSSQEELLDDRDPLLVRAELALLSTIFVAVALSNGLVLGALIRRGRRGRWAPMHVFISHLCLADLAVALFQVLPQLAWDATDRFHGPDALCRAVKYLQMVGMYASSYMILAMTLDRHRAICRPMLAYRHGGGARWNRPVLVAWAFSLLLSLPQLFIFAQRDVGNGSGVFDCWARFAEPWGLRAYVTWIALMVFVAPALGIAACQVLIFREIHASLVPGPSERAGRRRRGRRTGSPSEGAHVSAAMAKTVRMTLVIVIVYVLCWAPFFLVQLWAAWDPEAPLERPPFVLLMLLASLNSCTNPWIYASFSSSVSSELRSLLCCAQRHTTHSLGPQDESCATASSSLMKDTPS
# T2 sequence (P37288 whole entry): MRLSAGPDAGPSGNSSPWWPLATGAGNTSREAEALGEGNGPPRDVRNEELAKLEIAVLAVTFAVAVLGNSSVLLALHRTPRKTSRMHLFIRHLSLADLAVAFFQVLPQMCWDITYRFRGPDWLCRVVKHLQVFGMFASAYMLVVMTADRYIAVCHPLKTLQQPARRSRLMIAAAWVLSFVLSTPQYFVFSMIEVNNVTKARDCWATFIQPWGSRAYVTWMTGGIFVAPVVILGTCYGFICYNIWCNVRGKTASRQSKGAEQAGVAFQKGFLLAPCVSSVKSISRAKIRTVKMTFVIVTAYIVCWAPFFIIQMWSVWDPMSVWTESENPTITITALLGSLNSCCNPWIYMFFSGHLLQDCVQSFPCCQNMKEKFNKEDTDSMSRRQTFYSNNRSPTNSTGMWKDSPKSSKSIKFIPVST
Structure (SMILES),Urine Vol. (ml/4 hrs.) (Vasopressin V2),Osmolality (mOsm/kg) (Vasopressin V2),IC50 [1],inhibition at 10 µM (oxytocin receptors),other results
"O=C(c1ccc(-c2ccccc2)cc1)N1CCc2cn[nH]c2-c2ncccc21 [Example 364, 6-([1,1'-Biphenyl]-4-ylcarbonyl)-1,4,5,6-tetrahydropyrazolo[3,4-d]pyrido[3,2-b]azepine]",–,–,–,–,"inhibition at 1 µM ([1]; Rat Kidney Medullary V2, at 1 μM): 17%; inhibition at 10 µM ([2]; 1.5 h, *Human Platelet V1, at 10 μM): 77%"
"O=C(Nc1ccc(C(=O)N2CCc3cn[nH]c3-c3ncccc32)c(Cl)c1)c1ccccc1-c1ccccc1 [Example 366, N-[4-[(4,5-Dihydropyrazolo[3,4-d]pyrido[3,2-b]azepin-6(1H)-yl)carbonyl]-3-chlorophenyl][1,1'-biphenyl]-2-carboxamide]",17.8 ml/4 hrs.,431 mOsm/kg,–,–,–
"Cc1ccc(F)cc1C(=O)Nc1ccc(C(=O)N2CCc3cn[nH]c3-c3cccnc32)cc1 [Example 16, N-[4-[(4,5-Dihydropyrazolo[3,4-d]pyrido[2,3-b]azepin-6(1H)-yl)carbonyl]phenyl]-5-fluoro-2-methylbenzamide]",–,–,0.55 µM,–,IC50 ([2]; *Binding to V1 Receptor Subtype in Human Platelet): 3.3 µM
Cc1ccccc1C(=O)Nc1ccc(C(=O)N2CCc3cn(C)nc3-c3sccc32)cc1 [Example 361],–,–,–,57%,"IC50 (oxytocin receptors; 1.0 nM [^3 H]OT, 60 min., 22° C.): 6400 nM"
"Cc1ccc(F)cc1C(=O)Nc1ccc(C(=O)N2CCc3c[nH]nc3-c3sccc32)c(Cl)c1 [Example 3, N-[4-[(4,5-Dihydropyrazolo[3,4]thieno[3,2-b]azepin-6-(1H)-yl)carbonyl]-3-chlorophenyl]-5-fluoro-2-methylbenzamide]",–,–,0.0061 µM,–,–
"O=C(Nc1ccc(C(=O)N2CCc3c[nH]nc3-c3ncccc32)cn1)c1ccccc1-c1ccccc1 [Example 368, N-[5-[(4,5-Dihydro[3,4-d]pyrido[3,2-b]azepin-6(1H)-yl)carbonyl]-2-pyridinyl][1,1'-biphenyl]-2-carboxamide]",20.3 ml/4 hrs.,371 mOsm/kg,–,–,–
"O=C(Nc1ccc(C(=O)N2CCc3cn[nH]c3-c3sccc32)c(Cl)c1)c1cc(Cl)ccc1F [Example 4, N-[4-[(4,5-Dihydropyrazolo[3,4-d]thieno[3,2-b]azepin-6(1H)-yl)carbonyl]-3-chlorophenyl]-5-chloro-2-fluorobenzamide]",–,–,0.036 µM,–,–
"Cc1ccccc1C(=O)Nc1ccc(C(=O)N2CCc3c[nH]nc3-c3sccc32)cc1 [Example 7, N-[4-[[4,5-Dihydropyrazolo[3,4-d]thieno[3,2-b]azepin-6(2H)-yl]carbonyl]phenyl]-2-methylbenzamide]",20.8 ml/4 hrs.,322 mOsm/kg,–,65%,–
"Cn1cc2c(n1)-c1sccc1N(C(=O)c1ccc(NC(=O)c3ccc(Cl)cc3Cl)cc1)CC2 [Example 5, N-[4-[[4,5-Dihydro-2-methylpyrazolo[3,4-d]thieno[3,2-b]-azepin-6-(2H)-yl]carbonyl]phenyl]2,4-dichlorobenzamide]",–,–,–,47%,–
